Test results reported in patent US20140023592A1, “SELF COUPLING RECOMBINANT ANTIBODY FUSION PROTEINS” (RWTH Aachen, priority 2007, published 2014).

Test system: FKBP-AGT fusion protein (SNAP-FKBP)
Test: Reactivity with FKBP-AGT fusion protein (protein trimer formation, SDS-PAGE/coomassie)
Assay type: biochemical
Conditions: in vitro, 4 h incubation at rt, SDS-PAGE with coomassie staining
Description: Determination of the Reactivity of Compound (FIG. 89), (FIG. 90), (FIG. 91), (FIG. 92) and (FIG. 96) with FKBP-AGT Fusion Protein 1 μL of a 591 μM solution of FKBP protein fused to a variant of AGT available from Covalys as […] and 1 μL of a 100 μM solution of compound (FIG. 89), (FIG. 90), (FIG. 91), (FIG. 92) or (FIG. 96) are added to 8 μL of a solution of 50 mM Tris-HCl pH 7.5; 100 mM NaCl; 0.1% Tween20TM; 1 mM DTT. Following a 4 h incubation at rt, 15 μL of a solution of 100 mM Tris-HCl pH 6.8; 2% SDS; 35% glycerol; 10 mM EDTA; 20 mM DTT is added. Then the mixture is boiled for 5 min at 95° C. After cooling to rt, 25 μL of this solution is loaded on a 4-20% linear gradient SDS-PAGE gel. After electrophoresis, the proteins are coomassie stained in gel to visualize protein trimer.

Sequence of FKBP-AGT fusion protein (SNAP-FKBP) (P16455 1-182 C62A/K125A/A127T/R128A/G131K/G132T/M134L/R135S/C150S/N157G/S159E limits assumed): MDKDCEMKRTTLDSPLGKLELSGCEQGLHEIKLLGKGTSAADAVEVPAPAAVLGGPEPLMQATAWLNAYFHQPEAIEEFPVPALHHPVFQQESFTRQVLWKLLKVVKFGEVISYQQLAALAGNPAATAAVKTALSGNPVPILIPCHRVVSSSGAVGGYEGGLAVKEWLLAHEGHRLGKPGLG

Substance	structural ability to trigger the formation of a protein trimer
N-Tris-{[2-(BG-PEG12-NH)-carbonylethoxy]methyl}-methyl ATTO-495-carboxamide [FIG. 90]	confirmed
N-Tris-{[2-(BG-PEG12-NH)-carbonylethoxy]methyl}methyl 7-(diethylamino)coumarin-3-carboxamide [FIG. 89]	confirmed
N-Tris-{[2-(BG-PEG12-NH)-carbonylethoxy]methyl}-methyl nile red-oxyacetamide [FIG. 91]	confirmed
N-Tris-{[2-(BG-PEG12-NH)-carbonylethoxy]methyl}-methyl 5-maleimidopentanecarboxamide [FIG. 92]	confirmed
N-Tris-{[2-(BG-PEG12-NH)-carbonylethoxy]methyl}-methyl-3-[2-(2-maleimidoethyl)disulfanyl]propanoylamide [FIG. 96]	confirmed
